Consider 14 compounds from ChEMBL document CHEMBL1201862, “PubChem BioAssay data set” (2004).

Among the test systems are ACHN; CCRF-CEM; DMS-114; HL-60; IGROV-1; LXFL 529; Malme-3M; NCI-H23; OVCAR-5; SF-268; SF-295; SR; UACC-257; EKVX; HCC 2998; HCT-15; NCI-H522.
Test in all cases: inhibition of tumour cell growth, NCI panel, 48 h

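A five-concentration, 48-hour dose response in 96-well plates underlies each endpoint, interpolated linearly between surrounding concentrations. GI50 is the concentration that inhibits growth by half.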 Activity calls are given as the source filed them. No stated cut-off is given here; in the data, active = GI50 up to about 1.1 µM and inactive = higher. Bounds are passed on as bounds.

As to `CCC(=O)OC[n+]1ccc2c(C)c3[nH]c4ccccc4c3c(C)c2c1`, the GI50 is 0.289 µM (active) in the assay on ACHN; 0.444 µM (active) in the assay with CCRF-CEM; 0.608 µM (active) with DMS-114; 2.45 µM (inactive) in the assay with HL-60; 0.142 µM (active) with IGROV-1; 0.413 µM (active) in the assay with LXFL 529. Further, the GI50 is 1.35 µM (inactive) in the assay on Malme-3M; 0.675 µM (active) in the assay on NCI-H23; 0.516 µM (active) in the assay on OVCAR-5; 0.552 µM (active) in the assay with SF-268; 0.532 µM (active) in the assay on SF-295; 0.0423 µM (active) with SR. Moreover, the GI50 in the assay with UACC-257 is 1.37 µM (inactive).
Turning to `COc1cc(/C=C\c2ccc(O)cc2)cc(OC)c1OC`, the GI50 in the assay with ACHN is 8.17 µM (inactive); in the assay on CCRF-CEM, 3.72 µM (inactive); with DMS-114, 2.48 µM (inactive); in the assay on EKVX it was 9.93 µM (inactive); in the assay on HCC 2998, > 23.3 µM (inactive); with HCT-15 it was 0.518 µM. Also, the GI50 in the assay with HL-60 was 10.3 µM (inactive); in the assay on IGROV-1, 5.24 µM (inactive); in the assay on LXFL 529, 4.18 µM (inactive); in the assay on Malme-3M, 4.25 µM (inactive); with NCI-H23, 0.505 µM (active); in the assay with NCI-H522, 2.88 µM (inactive). The GI50 in the assay on OVCAR-5 is 98.9 µM (inactive); in the assay with SF-268, 0.555 µM (active); in the assay on SF-295 it was 2.47 µM (inactive); in the assay on UACC-257, 17.3 µM (inactive).
`O=C(/C=C/c1ccccc1Cl)c1ccccc1Cl`: the GI50 is 17.3 µM (inactive) in the assay on ACHN; 20.4 µM (inactive) in the assay with CCRF-CEM; 19.9 µM (inactive) with DMS-114; 22.4 µM (inactive) with EKVX; 21.6 µM (inactive) in the assay with HCC 2998; 14.8 µM in the assay with HCT-15. For the same compound, the GI50 in the assay with HL-60 was 22.4 µM (inactive); in the assay with IGROV-1, 17.3 µM (inactive); in the assay with LXFL 529 it was 17.2 µM (inactive); with Malme-3M, 31.8 µM (inactive); in the assay with NCI-H23, 21.2 µM (inactive); in the assay on NCI-H522, 19 µM (inactive). Further, the GI50 with OVCAR-5 is 21.1 µM (inactive); in the assay with SF-268, 23.4 µM (inactive); in the assay with SF-295, 22.6 µM (inactive); in the assay with UACC-257, 19.8 µM (inactive).
In the case of `N#CC1C(C#N)C2(c3ccccc3)C(c3ccccc3)=NN(c3ccccc3)CC12` (stereo unspecified), the GI50 was > 100 µM (inactive) in the assay with ACHN; > 100 µM (inactive) in the assay on CCRF-CEM; 59.4 µM (inactive) in the assay with DMS-114; > 100 µM (inactive) in the assay with EKVX; > 100 µM (inactive) with HCC 2998; over 100 µM with HCT-15. In addition, the GI50 in the assay on HL-60, with IGROV-1, in the assay with LXFL 529, in the assay with Malme-3M, in the assay on OVCAR-5 and with SF-295 was > 100 µM (inactive) in each case. The GI50 in the assay on SR and in the assay with UACC-257 was > 100 µM (inactive) throughout.
Take `CN(C)CCOc1cccc2c1C(=O)c1ccccc1C2=O`: the GI50 in the assay with ACHN was 12 µM (inactive); in the assay with CCRF-CEM, 11.4 µM (inactive); in the assay on DMS-114 it was 10.4 µM (inactive); with EKVX it was 18.4 µM (inactive); in the assay with HCC 2998, 13.9 µM (inactive); with HCT-15 it was 12.2 µM. Further, the GI50 in the assay on HL-60 is 12.1 µM (inactive); in the assay with IGROV-1, 16.5 µM (inactive); in the assay with LXFL 529, 12.1 µM (inactive); in the assay with Malme-3M, 13.6 µM (inactive); with NCI-H23 it was 11.8 µM (inactive); with NCI-H522, 6.52 µM (inactive). The GI50 in the assay with OVCAR-5 was 16.5 µM (inactive); with SF-268, 9.79 µM (inactive); in the assay on SF-295, 15.1 µM (inactive); with UACC-257, 13.1 µM (inactive).
Consider `CC(C)(C)OC(=O)N1N=NC2C3OC(CC3=O)C21` (stereo unspecified), for which the GI50 is > 100 µM (inactive) in the assay on ACHN; 40.9 µM (inactive) in the assay with CCRF-CEM; > 100 µM (inactive) in the assay on DMS-114; > 100 µM (inactive) in the assay with EKVX; > 100 µM (inactive) in the assay on HCC 2998; over 100 µM with HCT-15. Moreover, the GI50 with IGROV-1, in the assay with LXFL 529, in the assay on Malme-3M, in the assay with NCI-H23, in the assay with NCI-H522 and in the assay with OVCAR-5 was > 100 µM (inactive) throughout. For the same compound, the GI50 is > 100 µM (inactive) with SF-268, > 10 µM (inactive) in the assay on SF-295, 77.4 µM (inactive) in the assay on SR and > 100 µM (inactive) with UACC-257.
Turning to `O=C(/C=C1\Nc2ccccc2C(=O)N1c1ccc(Cl)cc1)c1ccncc1`, the GI50 in the assay with ACHN is > 100 µM (inactive); in the assay on CCRF-CEM it was > 100 µM (inactive); in the assay with DMS-114 it was > 100 µM (inactive); in the assay on EKVX it was > 100 µM (inactive); with HCT-15 it was over 100 µM; in the assay with HL-60 it was > 100 µM (inactive). The GI50 with LXFL 529 is > 100 µM (inactive); with Malme-3M, 60.1 µM (inactive); with NCI-H23, > 100 µM (inactive); with NCI-H522 it was > 100 µM (inactive); in the assay on OVCAR-5, > 100 µM (inactive); in the assay on SF-268 it was > 100 µM (inactive). Besides, the GI50 in the assay with SF-295 is 65 µM (inactive); with SR it was > 100 µM (inactive); with UACC-257, > 100 µM (inactive).
Consider `O=C1C2C=CC(C2)C(c2ccc(O)cc2)N1O` (stereo unspecified), for which the GI50 in the assay with ACHN, with CCRF-CEM, in the assay with EKVX, in the assay on HCC 2998, in the assay on HL-60 and with IGROV-1 was > 100 µM (inactive) throughout. The GI50 with LXFL 529, in the assay on Malme-3M, in the assay with NCI-H23, in the assay on NCI-H522, with OVCAR-5 and with SF-268 was > 100 µM (inactive) throughout. In addition, the GI50 in the assay with SF-295, in the assay with SR and in the assay with UACC-257 was > 100 µM (inactive) in each case.
Regarding `c1ccc(C2=NN3CN(N2)c2ccccc2OCCCOc2ccccc23)cc1`, the GI50 in the assay on ACHN was > 100 µM (inactive); with CCRF-CEM it was > 100 µM (inactive); in the assay with DMS-114 it was > 100 µM (inactive); in the assay on EKVX it was > 100 µM (inactive); in the assay with HCT-15, over 100 µM; with HL-60 it was 48.9 µM (inactive). Moreover, the GI50 with IGROV-1 was > 100 µM (inactive); in the assay on LXFL 529, > 100 µM (inactive); in the assay on Malme-3M it was > 100 µM (inactive); in the assay with NCI-H23, > 100 µM (inactive); in the assay with NCI-H522 it was 34.7 µM (inactive); with OVCAR-5, > 100 µM (inactive). Further, the GI50 with SF-268 was > 100 µM (inactive); in the assay with SF-295 it was > 100 µM (inactive); in the assay with SR it was 92.7 µM (inactive).
For `CC1(C)S[C@H](c2ccccc2C(=O)O)N[C@@H]1CC(=O)O`, the GI50 in the assay on ACHN is > 100 µM (inactive); with CCRF-CEM, > 100 µM (inactive); in the assay with DMS-114 it was > 100 µM (inactive); in the assay with EKVX, > 100 µM (inactive); in the assay with HCT-15, over 100 µM; with HL-60, > 100 µM (inactive). The GI50 in the assay with IGROV-1, with LXFL 529, in the assay with NCI-H23, with NCI-H522, in the assay with SF-268 and in the assay with SF-295 was > 100 µM (inactive) throughout. Besides, the GI50 with SR and with UACC-257 was > 100 µM (inactive) throughout.
With `O=C(OCC1CO1)c1cccs1` (stereo unspecified), the GI50 was > 100 µM (inactive) in the assay on ACHN; > 100 µM (inactive) with CCRF-CEM; > 100 µM (inactive) in the assay with DMS-114; > 100 µM (inactive) in the assay on EKVX; > 100 µM (inactive) with HCC 2998; over 100 µM in the assay on HCT-15. In addition, the GI50 was > 100 µM (inactive) with HL-60; > 100 µM (inactive) in the assay with IGROV-1; > 100 µM (inactive) in the assay on LXFL 529; > 100 µM (inactive) with Malme-3M; > 100 µM (inactive) in the assay on NCI-H23; 17 µM (inactive) in the assay on NCI-H522. Moreover, the GI50 in the assay with OVCAR-5, in the assay on SF-268, with SF-295 and in the assay with UACC-257 was > 100 µM (inactive) each time.
In the case of `Cn1cnc([N+](=O)[O-])c1Sc1nc2ccccc2s1`, the GI50 with ACHN was 15 µM (inactive); in the assay on DMS-114, 3.9 µM (inactive); in the assay with EKVX, 3.96 µM (inactive); with HCC 2998, 10.2 µM (inactive); with HCT-15, 2.99 µM; in the assay with IGROV-1, 11.9 µM (inactive). Also, the GI50 was 10.5 µM (inactive) in the assay with LXFL 529; 1.84 µM (inactive) with Malme-3M; 10.9 µM (inactive) with NCI-H23; 14.6 µM (inactive) in the assay with OVCAR-5; 7.19 µM (inactive) with SF-268; 20.8 µM (inactive) in the assay with SF-295. Further, the GI50 in the assay on SR is 3.48 µM (inactive).
Regarding `C=CC1(C)CC(=O)C2(O)C(C)(O1)C(OC(C)=O)C(O)C1C(C)(C)CCC(O)C12C` (stereo unspecified), the GI50 in the assay on ACHN is > 100 µM (inactive); in the assay on CCRF-CEM it was 22.2 µM (inactive); in the assay on DMS-114 it was 52.8 µM (inactive); in the assay with EKVX, > 150 µM (inactive); in the assay with HCC 2998 it was > 146 µM (inactive); in the assay with HCT-15, over 150 µM. Besides, the GI50 was 42.1 µM (inactive) in the assay on HL-60; 47.3 µM (inactive) with IGROV-1; > 100 µM (inactive) in the assay on LXFL 529; > 150 µM (inactive) with Malme-3M; 115 µM (inactive) in the assay on NCI-H23; 132 µM (inactive) with NCI-H522. Also, the GI50 in the assay on OVCAR-5 is 4.84 µM (inactive); with SF-268 it was > 128 µM (inactive); in the assay on SF-295, > 142 µM (inactive); in the assay with UACC-257, > 150 µM (inactive).
Take `COC(=O)[C@@]12C3=NO[C@]1(C(=O)OC)C(O[Si](C)(C)C(C)(C)C)[C@H]1OC(C)(C)O[C@H]1[C@@H]2C(OCc1ccccc1)CC3` (stereo partly specified): the GI50 in the assay on ACHN was 13.2 µM (inactive); with CCRF-CEM, > 100 µM (inactive); with DMS-114 it was 36.6 µM (inactive); in the assay with EKVX it was 89.1 µM (inactive); in the assay on HCC 2998 it was 63.1 µM (inactive); in the assay with HCT-15 it was over 100 µM. Besides, the GI50 was 6.49 µM (inactive) with HL-60; 42.7 µM (inactive) in the assay with IGROV-1; 60 µM (inactive) in the assay with LXFL 529; 80.4 µM (inactive) in the assay on NCI-H23; 37.3 µM (inactive) in the assay on SF-295.
